Assay results: patent US20100197610A1, “FRUCTOSE 1, 6 BISPHOSPHATE - A NOVEL ANTICONVULSANT DRUG” (Baylor College of Medicine, priority 2007, published 2010)

Assay: FDP levels in blood, brain and peripheral tissues after intraperitoneal administration
Format: in vivo, Sprague-Dawley rats
Method: Adult male Sprague-Dawley rats (170-220 g) were used to determine the kinetics of fructose-1,6-diphosphate (FDP). Levels of FDP were determined in blood and tissue samples as previously described (Gerhard, Methods of Enzymatic Analysis, Vol VI, Ed. Bergmeyer, H U, Academic Press NY, pp. 342-350). All chemicals and enzymes for the assay were obtained from Sigma Chemical Co (St. Louis Mo.). Animals were administered a single dose of 0.5 g kg-1 FDP (250 mg ml-1 dissolved in 0.1M phosphate buffered saline, pH 7). In vivo studies utilized the dicalcium salt of FDP, which has a purity of ˜70%. […] At the designated time, animals were anesthetized with 1 g kg-1 urethane. After deep anesthesia, whole blood was obtained from a cardiac puncture. One ml of whole blood was added to 5 ml of perchloric acid ([…]) and mixed. After centrifugation at 3,500 rev min-1 for 10 min at 4° C., the supernatant was removed and set aside. The sediment was re-suspended in 1 ml of the perchloric acid solution and 1 ml of distilled water and centrifuged. The resulting supernatant was combined with the first one and the pH was adjusted to 3.5 with potassium carbonate (5 mol l-1). The final volume was brought to 7 ml and the solution was allowed to sit in ice for 15 min. The supernatant was used for determination of FDP levels.
Immediately after removal of the whole blood sample, the rat was perfused through the heart with ice-cold 0.01M phosphate buffered saline. Tissue samples from liver, kidney, skeletal muscle (from thigh) and intra-abdominal fat were obtained and then the brain was removed and dissected into hippocampus, cerebral cortex, cerebellum and rest of brain. […] All tissue samples were weighed and then homogenized in 5 ml of ice-cold perchloric acid (0.6 mol l-1) as quickly as possible. The homogenates were then treated was described above for whole blood.
Actual levels of FDP were determined by monitoring absorbance of reduced nicotinamide adenine dinucleotide (NADH) and treating the sample with aldolase (EC 4.1.2.13, 45 units mg-1 diluted 1:27 with distilled water), the enzyme which cleaves FDP into dihydroxyacetone phosphate (DAP) and D-glyceraldehyde 3-phosphate (GAP). DAP and GAP are interconverted by the enzyme triosephosphate isomerase (TIM, EC 5.3.3.1, 5290 units mg-1 diluted 1:120 with distilled water). Glycerol-3-phosphate dehydrogenase (GDH, EC 1.1.1.8, 252 units mg-1 diluted 1:100 with distilled water) catalyzes the reduction of DAP by NADH. For the FDP measurements, 1.5 ml of tetraethyl ammonium buffer (TEA, 0.4 mol l-1, pH 7.6 with EDTA 40 mmol l-1) was added to 1 ml of the sample in a 4 ml cuvette. Then 0.1 ml of 5 mmol l-1 β-NADH, 0.4 ml of distilled water and 0.01 ml of the enzymes TIM and GDH were added and the cuvette inverted to mix the solutions. After 5 min the absorbance was read 3 times at 340 nm, each reading 3 min apart. The average of these readings is the initial absorbance (Ai). This step removes any DAP or GAP in the sample and determines the baseline absorbance. Aldolase (0.01 ml) was then added and mixed to cleave FDP into DAP and GAP. Nine minutes after addition of the aldolase, the final absorbance (Af) was determined by 3 readings at 340 nm, each 6 minutes apart. The concentration of FDP in the sample was proportional to the difference in the initial and final absorbance. Two moles of NADH are oxidized for each mole of FDP. Blanks and a FDP standard sample were run in parallel with every assay. Each blank had 1.6 ml of the TEA buffer, 1.4 ml water and the mixture of TIM and GDH. For the positive control, the sample was replaced with 1 ml of a solution containing 200 μg FDP per ml of phosphate buffered saline. The trisodium salt of FDP, with a purity of >98%, was utilized for all of the positive control samples and for the standard curves. Levels of FDP in blood were determined per ml, while levels in tissue samples were determined as a function of tissue weight. […]

O=C(COP(=O)(O)O)[C@@H](O)[C@H](O)[C@H](O)COP(=O)(O)O [F1,6BP, Fructose-1,6-bisphosphate]
FDP level in the brain at 12 hours vs levels at 1 and 2 hours (0.5 g kg-1 ip): not significantly different
time of peak FDP levels in blood (0.5 g kg-1 ip): 2 h
time of peak FDP levels in the brain (0.5 g kg-1 ip): 1 to 2 h
FDP levels in blood vs control (0.5 g kg-1 ip, 1 hour): significant increase
FDP level in blood compared to control values (0.5 g kg-1 ip, 12 hours): significantly elevated
FDP level in blood compared to the peak levels at 2 hours (0.5 g kg-1 ip, 12 hours): significantly decreased
FDP levels in liver, kidney, muscle and fat (0.5 g kg-1 ip, 12 hours): returned to near baseline
FDP levels in the brain vs control (0.5 g kg-1 ip, 36 hours): remained significantly elevated
FDP levels in blood (0.5 g kg-1 ip, by 6 hours): fallen more than halfway back to baseline
increase in FDP at 1 hour, all tissues measured (0.5 g kg-1 ip, liver, kidney, skeletal muscle and fat, n=6): around 0.2 mg g-1
increase in FDP at 1 hour, kidney (0.5 g kg-1 ip, n=6): 0.26 mg/g
increase in FDP at 1 hour, liver (0.5 g kg-1 ip, n=6): 0.17 mg/g
increase in FDP at 1 hour, muscle (0.5 g kg-1 ip, n=6): 0.17 mg/g
time at which an increase of FDP levels in blood was first seen (single dose 0.5 g kg-1 ip): 30 min
time out to which FDP levels in blood remained elevated (single dose 0.5 g kg-1 ip): 72 h
